# Experimental data published in PubChem BioAssay AID1259411 (Chemical Carcinogenesis Research Information System (CCRIS), 2018).
# Activity calls are given as the source filed them. The rule behind the calls is not given here.
# Test system: rodent carcinogenicity bioassays, tumor incidence
# Assay: CCRIS carcinogenicity studies
# Method in brief: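 Archive of carcinogenicity, mutagenicity, tumor promotion and tumor inhibition results drawn from journals, NCI reports and other sources, expert-reviewed; covers 1985-2011 and is no longer updated.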
structure (smiles),measurement,setting,value
CCOC(=O)C(C(=O)OCC)=C(NO)c1ccccc1,carcinogen call,"Species: Mouse, Strain/Sex: Swiss Albino/Female (60/sex/group), Route: Oral, Dose: 0, 10, 30, 100 ppm in feed for 18 mo, Dose: 0, 10, 30, 100 ppm in feed for 18 mo",inactive; negative; purity 97%
same,carcinogen call,"Species: Mouse, Strain/Sex: Swiss Albino/Male (60/sex/group), Route: Oral, Dose: 0, 10, 30, 100 ppm in feed for 18 mo, Dose: 0, 10, 30, 100 ppm in feed for 18 mo, Tumor Site: Type of Lesion: Liver: Hepatocellular adenoma (2/47, 4/48, 3/49, 5/53), Hepatocellular carcinoma (0/47, 0/48, 2/49, 4/53), Combined (2/4, Tumor Site: Type of Lesion: Liver: Hepatocellular adenoma (2/47, 4/48, 3/49, 5/53), Hepatocellular carcinoma (0/47, 0/48, 2/49, 4/53), Combined (2/4",active; positive (statistically significant trend but not incidence); purity 97%
same,carcinogen call,"Species: Rat, Strain/Sex: Sprague-Dawley /Female (70/sex/group in dosed animals; 105 controls/sex), Route: Oral, Dose: 0, 60, 190, 600 ppm in feed for 104 wks, Dose: 0, 60, 190, 600 ppm in feed for 104 wks",inactive; negative: purity 98.5%; liver: nonneoplastic liver lesions (eosinophilic cellula
same,carcinogen call,"Species: Rat, Strain/Sex: Sprague-Dawley /Male (70/sex/group in dosed animals; 105 controls/sex), Route: Oral, Dose: 0, 60, 190, 600 ppm in feed for 104 wks, Dose: 0, 60, 190, 600 ppm in feed for 104 wks",inactive; negative: purity 98.5%; liver: nonneoplastic liver lesions (eosinophilic cellula
c1ccc2nc3c(ccc4ccccc43)cc2c1,carcinogen call,"Species: MOUSE, Strain/Sex: SWISS/FEMALE, Route: INTRAPERITONEAL, Dose: 0, 1.05 UMOL GIVEN AS 150 NMOL IN 5 µL DMSO WITHIN 24 HR OF BIRTH, 300 NMOL IN 10 µL DMSO ON D 8 OF LIFE, AND 600 NMOL I, Tumor Site: Type of Lesion: LUNG: ADENOMA",active; positive
same,carcinogen call,"Species: MOUSE, Strain/Sex: SWISS/MALE, Route: INTRAPERITONEAL, Dose: 0, 1.05 UMOL GIVEN AS 150 NMOL IN 5 µL DMSO WITHIN 24 HR OF BIRTH, 300 NMOL IN 10 µL DMSO ON D 8 OF LIFE, AND 600 NMOL I, Tumor Site: Type of Lesion: LUNG: ADENOMA, LIVER: NEOPLASTIC NODULE",active; positive
same,carcinogen call,"Species: RAT, Strain/Sex: OSBORNE-MENDEL/FEMALE, Route: LUNG IMPLANT, Dose: 0, 0.1, 0.3, 1.0 MG IN BEESWAX/TRICAPRYLIN (STUDY DURATION: LIFETIME), Dose: 0, 0.1, 0.3, 1.0 MG IN BEESWAX/TRICAPRYLIN (STUDY DURATION: LIFETIME)",inactive; negative
C[C@@H]1O[C@@H]1Cl,carcinogen call,"Species: MOUSE, Strain/Sex: ICR/FEMALE, Route: DERMAL, Dose: 10 MG IN 0.1 ML ACETONE 3/WK FOR LIFE, Tumor Site: Type of Lesion: INTEGUMENTARY SYSTEM (SKIN): PAPILLOMA, SQUAMOUS CELL CARCINOMA",active; positive
C=CC(=O)O,carcinogen call,"Species: MOUSE, Strain/Sex: C3H/MALE, Route: DERMAL, Dose: 0, 0.20 MG IN 25 µL ACETONE 3/WK FOR LIFESPAN (STUDY DURATION: LIFESPAN)",inactive; negative
same,carcinogen call,"Species: RAT, Strain/Sex: WISTAR/FEMALE, Route: ORAL, Dose: 0, 120, 400, 1200 PPM IN DRINKING WATER FOR 28 MO (STUDY DURATION: 28 MO), Dose: 0, 120, 400, 1200 PPM IN DRINKING WATER FOR 28 MO (STUDY DURATION: 28 MO)",inactive; negative
same,carcinogen call,"Species: RAT, Strain/Sex: WISTAR/MALE, Route: ORAL, Dose: 0, 120, 400, 1200 PPM IN DRINKING WATER FOR 26 MO (STUDY DURATION: 26 MO), Dose: 0, 120, 400, 1200 PPM IN DRINKING WATER FOR 26 MO (STUDY DURATION: 26 MO)",inactive; negative
c1ccc2c(c1)ccc1cc3ccc4ccccc4c3nc12,carcinogen call,"Species: MOUSE, Strain/Sex: CD-1/FEMALE, Route: INTRAPERITONEAL, Dose: 0, 175 NMOL (TOTAL DOSE) ADMINISTERED AS 1/7 OF DOSE WITHIN 24 HR AFTER BIRTH, 2/7 OF DOSE AT 8 D OLD, 4/7 OF DOSE AT 15, Tumor Site: Type of Lesion: LUNG: TUMOR",active; positive
same,carcinogen call,"Species: MOUSE, Strain/Sex: CD-1/MALE, Route: INTRAPERITONEAL, Dose: 0, 175 NMOL (TOTAL DOSE) ADMINISTERED AS 1/7 OF DOSE WITHIN 24 HR AFTER BIRTH, 2/7 OF DOSE AT 8 D OLD, 4/7 OF DOSE AT 15, Tumor Site: Type of Lesion: LIVER: TUMOR, LUNG: TUMOR",active; positive
O=c1ccc2ccc3occc3c2o1,carcinogen call,"Species: MOUSE, Strain/Sex: C3H/HEN/FEMALE, Route: DERMAL, Dose: 215 UG IN 70% ETHANOL 3/WK FOR 48 WK (STUDY DURATION: 68 WK)",inactive; negative
[2H]c1c([2H])c([2H])c2c(C([2H])([2H])[2H])c3c(c([2H])c([2H])c4c([2H])c([2H])c([2H])c([2H])c43)c(C([2H])([2H])[2H])c2c1[2H],carcinogen call,"Species: MOUSE, Strain/Sex: SWISS/FEMALE, Route: SUBCUTANEOUS, Dose: IN OLIVE OIL 1/MO FOR 3 MO FOR A TOTAL DOSE OF 0, 1.5 MG (STUDY DURATION: 395 D), Tumor Site: Type of Lesion: INJECTION SITE: FIBROBLASTIC SARCOMA",active; positive
same,carcinogen call,"Species: MOUSE, Strain/Sex: SWISS/MALE, Route: SUBCUTANEOUS, Dose: IN OLIVE OIL 1/MO FOR 3 MO FOR A TOTAL DOSE OF 0, 1.5 MG (STUDY DURATION: 395 D), Tumor Site: Type of Lesion: INJECTION SITE: FIBROBLASTIC SARCOMA",active; positive
CCCCCCCCCCCC(=O)N(CCO)CCO,carcinogen call,"Species: MOUSE, Strain/Sex: B6C3F1/FEMALE, Route: DERMAL, Dose: 0, 100, 200 MG/KG BW IN ETHANOL FOR 105 WK (STUDY DURATION: 105 WK), Dose: 0, 100, 200 MG/KG BW IN ETHANOL FOR 105 WK (STUDY DURATION: 105 WK), Tumor Site: Type of Lesion: LIVER: HEPATOCELLULAR ADENOMA, HEPATOCELLULAR ADENOMA OR CARCINOMA, HEPATOCELLULAR CARCINOMA OR HEPATOBLASTOMA, HEPATOCE",equivocal
same,carcinogen call,"Species: MOUSE, Strain/Sex: B6C3F1/MALE, Route: DERMAL, Dose: 0, 100, 200 MG/KG BW IN ETHANOL FOR 105 WK (STUDY DURATION: 105 WK), Dose: 0, 100, 200 MG/KG BW IN ETHANOL FOR 105 WK (STUDY DURATION: 105 WK)",inactive; negative
same,carcinogen call,"Species: RAT, Strain/Sex: F344/N/FEMALE, Route: DERMAL, Dose: 0, 50, 100 MG/KG BW IN ETHANOL FOR 105 WK (STUDY DURATION: 105 WK), Dose: 0, 50, 100 MG/KG BW IN ETHANOL FOR 105 WK (STUDY DURATION: 105 WK)",inactive; negative
same,carcinogen call,"Species: RAT, Strain/Sex: F344/N/MALE, Route: DERMAL, Dose: 0, 50, 100 MG/KG BW IN ETHANOL FOR 104 WK (STUDY DURATION: 104 WK), Dose: 0, 50, 100 MG/KG BW IN ETHANOL FOR 104 WK (STUDY DURATION: 104 WK)",inactive; negative
O=S(=O)(O)OCc1c2ccccc2cc2c1ccc1ccccc12,carcinogen call,"Species: RAT, Strain/Sex: SPRAGUE-DAWLEY/FEMALE, Route: SUBCUTANEOUS, Dose: 0, 0.2 UMOL IN SESAME OIL:DMSO (9:1) 3/WK FOR 20 DOSES (STUDY DURATION: 52 WK), Tumor Site: Type of Lesion: INJECTION SITE: SARCOMA",active; positive
